{
  "source": "patent US7951530B2",
  "about": "“Cyclic maltosylmaltose, cyclic maltosymaltose-forming enzyme, their preparation and uses” (Kabushiki Kaisha Hayashibara Seibutsu Kagaku Kenkyujo, priority 2003, dated 2011)",
  "key": {"[1]": {"assay": "Concentration of CMM in saturated aqueous solution", "assay_type": "physicochemical", "settings": "25° C.", "protocol": "Successively, the glass vessel was sealed, and the suspension was stirred two days with keeping the temperature at 25° C. to give a saturated solution. After removing the solid CMM by filtrating the saturated solution, the moisture content of the filtrate was measured by the drying loss method to determine the concentration of CMM in saturated solution."}, "Thermal stability of CMM": {"assay": "Thermal stability of CMM", "assay_type": "physicochemical", "settings": "7% (w/v) CMM, 120° C.; for Purity (%): HPLC", "protocol": "A powdery hydrous crystalline CMM was dissolved in water for preparing an aqueous solution containing 7% (w/v) of CMM. Eight milliliters each of the resulting solution was pored into a glass tube, sealed closely, and then heated at 120° C. for 30 to 90 min. After cooling the solution, the degree of coloring of the solution was measured. Further, the purity of CMM in the solution was measured by HPLC. The degree of coloring was defined as an absorbance at 480 nm using a 1 cm-cell."}, "pH stability of CMM": {"assay": "pH stability of CMM", "assay_type": "physicochemical", "settings": "4% (w/v) CMM, 100° C. for 24 hours", "protocol": "Eight milliliters of each solution was put in a glass tube, sealed and then heated at 100° C. for 24 hours. After cooling the solution, the degree of coloring and the purity of CMM were measured in the same manner in Experiment 17."}, "[2]": {"assay": "Amino-carbonyl reaction with glycine", "assay_type": "physicochemical", "settings": "[…] (w/v) saccharide, 0.5% (w/v) glycine, pH 8.0, 100° C.", "protocol": "(§1) As a control, an aqueous solution containing maltose and glycine was prepared in the same manner using maltose except for the powdery hydrous crystalline CMM. Four milliliters each of the solution was put in a glass tube, sealed and then heated at 100° C. for 30, 60, or 90 min. After cooling the solutions, the degrees of coloring of the solutions were measured to estimate the degree of amino-carbonyl reaction. The degree of coloring was defined as an absorbance at 480 nm using a 1 cm-cell."}, "[3]": {"assay": "Amino-carbonyl reaction with polypeptone", "assay_type": "physicochemical", "settings": "5% (w/v) saccharide, 5% (w/v) polypeptone, 120° C., blank subtracted", "protocol": "as §1, with “polypeptone” for “glycine”, “120°” for “100°”, “reaction. As a blank test, a solution containing polypeptone only was heated in the same manner.” for “reaction.”, “cm-cell after subtracting the absorbance of the blank test.” for “cm-cell.”"}, "[4]": {"assay": "Clathrating action of CMM", "assay_type": "physicochemical", "settings": "for strength of clathrating activity in comparison with branched cyclodextrin: on a weight basis", "source_text": "One hundred grams of the aqueous solution was admixed with 1.2 g of methanol, 1.7 g of ethanol, or 2.2 g of acetic acid as flavor components for allowing CMM to clathrate the flavor components. Successively, each solution was filtrated, and the resulting filtrate was freeze-dried to remove unclathrated flavor component. As a control, “ISOELITE P”, a mixture of branched cyclodextrins commercialized by Maruha Corporation, Tokyo, Japan, which has been known to have a clathrating activity, was tested by the same procedure. In order to measure the amount of flavor component clathrated in the freeze-dried powder, 1 g of each freeze-dried powder was dissolved in 5 ml of water and admixed with 5 ml of diethylether to extract the flavor component, and the extraction was repeated once more. The amount of the extracted flavor component in diethylether was measured by gas-chromatography."}, "rat cecal contents": {"system": "rat cecal contents", "assay": "Test for fermentability by rat cecal contents", "assay_type": "in vitro ADME, Wister-rat", "protocol": "According to the method of Oku et al., described in Journal of Nutritional Science and Vitaminology, vol. […] The cecal contents was collected under an anaerobic condition by killing a Wister-rat under anesthesia and suspended into 4-folds by volume of 0.1 M sodium bicarbonate aqueous solution, and then used for the test. CMM was added to the cecal contents by about 7% (w/w) of the weight of the cecal contents. The amounts of CMM at just after mixing and after 12 hours were determined by gas-chromatography. […] About 92% of CMM was not fermented and remained."}, "mice": {"system": "mice", "assay": "Acute toxicity test", "assay_type": "in vivo", "source_text": "By using mice, CMM obtained by the method in Experiment 14 was orally administrated to the mice for its acute toxicity test. […] Though not so accurate, the value of LD50 of CMM was 5 g/kg-mouse weight or higher."}, "[5]": {"assay": "Reducing power by the Somogyi-Nelson method", "assay_type": "physicochemical", "source_text": "It was concluded that the saccharide was a non-reducing saccharide substantially."}},
  "data": [
    {"compound": "OC[C@H]1O[C@@H]2OC[C@H]3O[C@H](O[C@H]4[C@H](O)[C@@H](O)[C@@H](OC[C@H]5O[C@H](O[C@H]1[C@H](O)[C@H]2O)[C@H](O)[C@@H](O)[C@@H]5O)O[C@@H]4CO)[C@H](O)[C@@H](O)[C@@H]3O", "note": "[CMM, cyclo{>6)-α-D-glucopyranosyl-(1>4)-α-D-glucopyranosyl-(1>6)-α-D-glucopyranosyl-(1>4)-α-D-glucopyranosyl-(1>}]", "values": [
      {"measurement": "saturated concentration of CMM to water", "setting": "[1]", "result": "about 8.0 % (w/w)"},
      {"measurement": "Degree of coloring (A480 nm)", "setting": "Thermal stability of CMM; heating time 0 min", "result": 0},
      {"measurement": "Purity (%)", "setting": "Thermal stability of CMM; heating time 0 min", "result": 100, "unit": "%"},
      {"measurement": "Degree of coloring (A480 nm)", "setting": "Thermal stability of CMM; heating time 30 min", "result": 0},
      {"measurement": "Purity (%)", "setting": "Thermal stability of CMM; heating time 30 min", "result": 100, "unit": "%"},
      {"measurement": "Degree of coloring (A480 nm)", "setting": "Thermal stability of CMM; heating time 60 min", "result": 0},
      {"measurement": "Purity (%)", "setting": "Thermal stability of CMM; heating time 60 min", "result": 100, "unit": "%"},
      {"measurement": "Degree of coloring (A480 nm)", "setting": "Thermal stability of CMM; heating time 90 min", "result": 0},
      {"measurement": "Purity (%)", "setting": "Thermal stability of CMM; heating time 90 min", "result": 100, "unit": "%"},
      {"measurement": "Degree of coloring (A480 nm)", "setting": "pH stability of CMM; pH 2.0, Acetate buffer", "result": 0},
      {"measurement": "Purity (%)", "setting": "pH stability of CMM; pH 2.0, Acetate buffer", "result": 93, "unit": "%"},
      {"measurement": "Degree of coloring (A480 nm)", "setting": "pH stability of CMM; pH 3.0, Acetate buffer", "result": 0},
      {"measurement": "Purity (%)", "setting": "pH stability of CMM; pH 3.0, Acetate buffer", "result": 100, "unit": "%"},
      {"measurement": "Degree of coloring (A480 nm)", "setting": "pH stability of CMM; pH 4.0, Acetate buffer", "result": 0},
      {"measurement": "Purity (%)", "setting": "pH stability of CMM; pH 4.0, Acetate buffer", "result": 100, "unit": "%"},
      {"measurement": "Degree of coloring (A480 nm)", "setting": "pH stability of CMM; pH 5.0, Acetate buffer", "result": 0},
      {"measurement": "Purity (%)", "setting": "pH stability of CMM; pH 5.0, Acetate buffer", "result": 100, "unit": "%"},
      {"measurement": "Degree of coloring (A480 nm)", "setting": "pH stability of CMM; pH 6.0, Tris-HCl buffer", "result": 0},
      {"measurement": "Purity (%)", "setting": "pH stability of CMM; pH 6.0, Tris-HCl buffer", "result": 100, "unit": "%"},
      {"measurement": "Degree of coloring (A480 nm)", "setting": "pH stability of CMM; pH 7.0, Tris-HCl buffer", "result": 0},
      {"measurement": "Purity (%)", "setting": "pH stability of CMM; pH 7.0, Tris-HCl buffer", "result": 100, "unit": "%"},
      {"measurement": "Degree of coloring (A480 nm)", "setting": "pH stability of CMM; pH 8.0, Tris-HCl buffer", "result": 0},
      {"measurement": "Purity (%)", "setting": "pH stability of CMM; pH 8.0, Tris-HCl buffer", "result": 100, "unit": "%"},
      {"measurement": "Degree of coloring (A480 nm)", "setting": "pH stability of CMM; pH 9.0, Ammonium buffer", "result": 0},
      {"measurement": "Purity (%)", "setting": "pH stability of CMM; pH 9.0, Ammonium buffer", "result": 100, "unit": "%"},
      {"measurement": "Degree of coloring (A480 nm)", "setting": "[2]; heating time 0 min", "result": 0.00},
      {"measurement": "Degree of coloring (A480 nm)", "setting": "[2]; heating time 30 min", "result": 0.00},
      {"measurement": "Degree of coloring (A480 nm)", "setting": "[2]; heating time 60 min", "result": 0.00},
      {"measurement": "Degree of coloring (A480 nm)", "setting": "[2]; heating time 90 min", "result": 0.00},
      {"measurement": "Degree of coloring (A480 nm)", "setting": "[3]; heating time 0 min", "result": 0.00},
      {"measurement": "Degree of coloring (A480 nm)", "setting": "[3]; heating time 30 min", "result": 0.00},
      {"measurement": "Degree of coloring (A480 nm)", "setting": "[3]; heating time 60 min", "result": 0.00},
      {"measurement": "Degree of coloring (A480 nm)", "setting": "[3]; heating time 90 min", "result": 0.00},
      {"measurement": "strength of clathrating activity in comparison with branched cyclodextrin", "setting": "[4]; acetic acid", "result": "~0.8", "unit": "fold"},
      {"measurement": "strength of clathrating activity in comparison with branched cyclodextrin", "setting": "[4]; ethanol", "result": "~0.5", "unit": "fold"},
      {"measurement": "Amount of flavor component clathrated (mg/g-freeze-dried powder)", "setting": "[4]; flavor component Acetic acid", "result": 30.55, "unit": "mg/g-freeze-dried powder"},
      {"measurement": "Amount of flavor component clathrated (mg/g-freeze-dried powder)", "setting": "[4]; flavor component Ethanol", "result": 4.20, "unit": "mg/g-freeze-dried powder"},
      {"measurement": "Amount of flavor component clathrated (mg/g-freeze-dried powder)", "setting": "[4]; flavor component Methanol", "result": 4.30, "unit": "mg/g-freeze-dried powder"},
      {"measurement": "strength of clathrating activity in comparison with branched cyclodextrin", "setting": "[4]; methanol", "result": "about 1.3 folds"},
      {"measurement": "CMM not fermented and remained", "setting": "rat cecal contents; after 12 hours", "result": "About 92%"},
      {"measurement": "concentration of CMM in the cecal contents", "setting": "rat cecal contents; after 12 hours", "result": 63.0, "unit": "mg/g-cecal contents"},
      {"measurement": "concentration of CMM in the cecal contents", "setting": "rat cecal contents; just after adding", "result": 68.5, "unit": "mg/g-cecal contents"},
      {"measurement": "mortality", "setting": "mice; oral administration at the highest possible dose", "result": "no mouse died"},
      {"measurement": "LD50", "setting": "mice; oral administration, mice, though not so accurate", "result": "≥ 5", "unit": "g/kg-mouse weight"},
      {"measurement": "reducing power", "setting": "[5]", "result": "less than the measurable limit"},
      {"measurement": "Degradation rate (%)", "setting": "Pancreas α-amylase", "result": 0, "unit": "%"},
      {"measurement": "Degradation rate (%)", "setting": "Small intestinal enzymes", "result": 0, "unit": "%"}
    ]}
  ]
}
